The text below walks through data of patent publication US5525591A, “Endoparasiticidal compositions based on open-chain octadepsipeptides” (Bayer Aktiengesellschaft, priority 1993, dated 1996).

The test system of this assay is Haemonchus contortus. Put plainly: In vivo nematode test Haemonchus contortus/sheep. The settings on record: sheep infected experimentally with Haemonchus contortus, treated after prepatency period; pure active compound applied orally and/or intravenously; dose at which nematode egg excretion with the faeces stopped completely. How it is done:
In vivo nematode test Haemonchus contortus/sheep
The degree of effectiveness is determined by quantitatively determinating the nematode eggs excreted with the faeces before and after the treatment.

Consider “tert-Butyl-N-Benzyl-N-propyl-L-leucyl-D-lactyl-N-^i -propyl-L-leucyl-D-3-phenyllactyl-N-^i propyl-L-leucyl-D-lactyl-N-^i propyl-L-leucyl-D-3-phenyllactate [Example 2]”, for which the “Dosis effectiva” value was found to be 10 mg/kg.
